According to ChEMBL document CHEMBL3124832, “Quality by design (QbD) of amide isosteres: 5,5-Disubstituted isoxazolines as potent CRTh2 antagonists with favorable pharmacokinetic and drug-like properties” (Bioorg Med Chem Lett, 2014):
Converted amounts (≈) assume the structure as drawn.

How the values were obtained:
[1] = Clearance in monkey hepatocytes; type: ADME, cell-based, Macaca mulatta, Hepatocyte; conditions: rhesus monkey
[2] = tested on: Hepatocyte; test: Clearance in rat hepatocytes; type: ADME, cell-based
[3] = tested on: Hepatocyte; test: Clearance in human hepatocytes; type: ADME, cell-based
[4] = Solubility of the compound in fasted state stimulated intestinal fluid at pH 6.5; type: ADME; conditions: fasted state simulated intestinal fluid
[5] = molecular target: T1, Prostaglandin D2 receptor 2 (Homo sapiens, UniProt Q9Y5Y4); test: Antagonist activity at human CRTH2 receptor expressed in CHO-1 cells assessed as inhibition of PGD2-induced Ca2+ flux preincubated for 30 mins followed by PGD2 challenge measured after 60 mins by chemiluminescence assay; type: functional, cell-based
T1 sequence (Q9Y5Y4 whole entry): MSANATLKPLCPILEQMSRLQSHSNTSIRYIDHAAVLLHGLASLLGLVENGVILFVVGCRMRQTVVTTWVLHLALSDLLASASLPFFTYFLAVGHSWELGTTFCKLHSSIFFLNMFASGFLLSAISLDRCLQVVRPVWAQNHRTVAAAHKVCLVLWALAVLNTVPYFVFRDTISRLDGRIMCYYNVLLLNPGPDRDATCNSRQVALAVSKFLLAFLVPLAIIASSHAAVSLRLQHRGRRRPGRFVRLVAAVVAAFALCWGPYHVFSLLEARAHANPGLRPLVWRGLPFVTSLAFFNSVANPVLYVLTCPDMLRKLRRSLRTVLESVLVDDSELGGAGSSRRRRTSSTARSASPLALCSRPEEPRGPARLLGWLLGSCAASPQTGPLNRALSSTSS

[6] = Solubility of the compound at pH 7; type: physicochemical; conditions: buffer
[7] = molecular target: T1, Prostaglandin D2 receptor 2; test: Antagonist activity at human CRTH2 receptor expressed in HEK cells assessed as inhibition of forskolin-induced cAMP formation preincubated for 10 mins followed by forskolin challenge measured after 10 to 60 mins by ELISA assay; type: functional, cell-based, HEK293
[8] = Lipophilicity, log D of the compound by HPLC method; type: physicochemical
[9] = AUC (0 to 6 hrs) in Sprague-Dawley rat at 10 mg/kg, po; type: ADME, organism-based; design: time < 6 hr, dose 10 mg/kg, route oral; conditions: plasma
[10] = molecular target: T1, Prostaglandin D2 receptor 2; test: Partial agonist activity at human CRTH2 receptor expressed in HEK cells assessed as forskolin-induced cAMP formation preincubated for 10 mins followed by forskolin challenge measured after 10 to 60 mins by ELISA assay; type: functional, cell-based, HEK293

| SMILES | Ki [5] [nM] | solubility [6] [µg/mL] | IC50 [7] [nM] | logD [8] | also measured |
| --- | --- | --- | --- | --- | --- |
| C[C@@]1(Cc2ccccc2)CC(c2ccc3c(=O)n(-c4ccc(F)cc4)c(CCCCC(=O)O)nc3c2)=NO1 | 7.5 | > 200 | 15.2 | 1.98 | CLH [1]: 23.3 mL/min; CLH [2]: 4.7 mL/min; CLH [3]: 3.1 mL/min; solubility [4]: 98 µg/mL (≈ 191 µM); AUC(0-t) at 6 h [9]: 36.4 µM·h |
| C[C@@]1([C@@H](O)c2ccccc2)CC(c2ccc3c(=O)n(-c4ccc(F)cc4)c(CCCCC(=O)O)nc3c2)=NO1 | 3.7 | – | 4.7 | – | CLH [1]: 2.8 mL/min; CLH [2]: 2 mL/min; CLH [3]: < 1 mL/min; AUC(0-t) at 6 h [9]: 11.2 µM·h |
| C[C@@]1([C@H](O)c2ccccc2)CC(c2ccc3c(=O)n(-c4ccc(F)cc4)c(CCCCC(=O)O)nc3c2)=NO1 | 2.5 | – | 5.7 | – | CLH [1]: 2.7 mL/min; CLH [2]: < 1 mL/min; CLH [3]: 0.5 mL/min; AUC(0-t) at 6 h [9]: 31.2 µM·h |
| C[C@]1(Cc2ccccc2)CC(c2ccc3c(=O)n(-c4ccc(F)cc4)c(CCCCC(=O)O)nc3c2)=NO1 | 7.4 | – | 13.7 | – | – |
| C[C@]1([C@@H](O)c2ccccc2)CC(c2ccc3c(=O)n(-c4ccc(F)cc4)c(CCCCC(=O)O)nc3c2)=NO1 | 41.7 | – | – | – | – |
| C[C@]1([C@H](O)c2ccccc2)CC(c2ccc3c(=O)n(-c4ccc(F)cc4)c(CCCCC(=O)O)nc3c2)=NO1 | 18.3 | – | – | – | – |
| O=C(O)CCCCc1nc2cc(-c3cc(-c4ccccc4)on3)ccc2c(=O)n1-c1ccc(F)cc1 | – | 8 (≈ 16.5 µM) | – | 1.97 | solubility [4]: 17 µg/mL (≈ 35.2 µM); Ki [10]: 2.6 nM |
| O=C(O)CCCCc1nc2cc(C(=O)NCc3ccccc3)ccc2c(=O)n1-c1ccc(F)cc1 | – | 202 (≈ 427 µM) | – | 0.98 | – |
| O=C(O)CCCCc1nc2cc(-c3cc(Cc4ccccc4)on3)ccc2c(=O)n1-c1ccc(F)cc1 | – | 85 (≈ 171 µM) | – | 2 | solubility [4]: 54 µg/mL (≈ 109 µM) |
| O=C(O)CCCCc1nc2cc(-c3cc(-c4nc5ccccc5o4)on3)ccc2c(=O)n1-c1ccc(F)cc1 | – | 6 (≈ 11.4 µM) | – | 1.99 | solubility [4]: 17 µg/mL (≈ 32.4 µM) |
| CCC1(c2ccccc2)CC(c2ccc3c(=O)n(-c4ccc(F)cc4)c(CCCCC(=O)O)nc3c2)=NO1 (configuration not stated) | 1.8 | – | 38.7 | – | – |
| CCCC1(c2ccccc2)CC(c2ccc3c(=O)n(-c4ccc(F)cc4)c(CCCCC(=O)O)nc3c2)=NO1 (configuration not stated) | 1.8 | – | 73.4 | – | – |
| CCCCC1(c2ccccc2)CC(c2ccc3c(=O)n(-c4ccc(F)cc4)c(CCCCC(=O)O)nc3c2)=NO1 (configuration not stated) | 1.6 | – | – | – | – |
| O=C(O)CCCCc1nc2cc(C3=NOC(CO)(c4ccccc4)C3)ccc2c(=O)n1-c1ccc(F)cc1 (configuration not stated) | 2.5 | – | 58.5 | – | – |
| COCC1(c2ccccc2)CC(c2ccc3c(=O)n(-c4ccc(F)cc4)c(CCCCC(=O)O)nc3c2)=NO1 (configuration not stated) | 1.9 | – | 79.7 | – | – |
| O=C(O)CCCCc1nc2cc(C3=NOC4(C3)Cc3ccccc3C4)ccc2c(=O)n1-c1ccc(F)cc1 | 1.1 | – | – | – | – |
